Columns and labels:
hepatocytes [1] = assay: Fatty liver model: measurement of total triglycerides; assay type: cell-based, rat; settings: high insulin/glucose media; pioglitazone 1.5 μM; to levels similar to healthy conditions
Procedure: Triglyceride content was assessed using a commercially available colorimetric assay kit (Cayman Triglyceride Colorimetric Assay Kit, Cat #10010303). At the end of the treatment period, cells were collected from the porous membranes by scraping with a rubber policeman and PBS, after which they were centrifuged (2,000×g for 10 minutes at 4° C.). The cell pellets were resuspended in 100 μl of cold diluted Standard Diluent from the triglyceride assay kit and sonicated 20 times at one second bursts. The cell suspension was then centrifuged at 10,000×g for 10 minutes at 4° C. The supernatant was removed and used for the assay as per the manufacturer's protocol and normalized to protein content from the same samples.

hepatocytes [2] = assay: Fatty liver model: RT-PCR metabolic gene expression; settings: high insulin/glucose disease conditions; pioglitazone 1.5 μM

`CCc1ccc(CCOc2ccc(CC3SC(=O)NC3=O)cc2)nc1` (centres unmarked) [Pioglitazone, pioglitazone] was tested, and the “total triglyceride content of hepatocytes” value (hepatocytes [1]) was “reduced” and the “expression of metabolic genes such as Cyp3A2” value (hepatocytes [2]) was “restored”.

Source: patent US11061016B2, “In vitro model for pathological or physiologic conditions” (HemoShear, LLC, priority 2012, dated 2021)
